Patent US8354106B2, “Antibodies against HMGB1 and fragments thereof” (The Feinstein Institute for Medical Research, priority 2005, dated 2013)
Entries after “also recorded” stand apart in the source; their conditions may differ. Where no end group is shown, it is not given here. The star is where a group is joined. Biotin = O=C1N[C@H]2[C@H](CS[C@H]2CCCCC(=O)*)N1

What was measured:
Type in all cases: cell-based, mouse
[1] = tested on: murine bone marrow-derived dendritic cells (BM-DCs); test: Cytokine/chemokine secretion by murine bone marrow-derived dendritic cells (ELISA); set-up: key to TNFα secretion / IL-18 secretion / IL-8 secretion / IL-10 secretion / IL-2 secretion / IL-1β secretion / IL-5 secretion / IL-6 secretion / IL-12 secretion: “+” indicates an increase; “−” indicates no change relative to untreated cells (medium); settings: for IL-1β secretion / IL-2 secretion / IL-5 secretion / IL-6 secretion / IL-8 secretion / IL-10 secretion / IL-12 secretion / IL-18 secretion / TNFα secretion: MURINE DC, ELISA 48 h after exposure, relative to untreated cells; for IL-1β secretion / IL-2 secretion / IL-5 secretion / IL-6 secretion / IL-8 secretion / IL-10 secretion / IL-12 secretion / IL-18 secretion / TNFα secretion / secretion of IL-1β / secretion of IL-2 / secretion of IL-8 / secretion of IL-5 / secretion of IL-18 / secretion of TNF-α / secretion of IL-12 (p70): peptides 200 μg/ml, HMGB1-Bx 50 μg/ml; for cytokine secretion by murine BM-DCs / secretion of IL-1β / secretion of IL-2 / secretion of IL-8 / secretion of IL-5 / secretion of IL-18 / secretion of TNF-α / secretion of IL-12 (p70): murine BM-DCs; for secretion of IL-1β: FIG. 2A; for secretion of IL-1β / secretion of IL-2 / secretion of IL-8 / secretion of IL-5 / secretion of IL-18 / secretion of TNF-α / secretion of IL-12 (p70): 48 h; for secretion of IL-2: FIG. 2C; for secretion of IL-8: FIG. 2D; for secretion of IL-5: FIG. 2E; for secretion of IL-18: FIG. 2F; for secretion of TNF-α: FIG. 2G; for secretion of IL-12 (p70): FIGS. 2B, 2H
Experimental: Bone marrow-derived DCs (BM-DCs) were generated using modifications of the original method described by Inaba, et al. (J. Exp. Med. 1 76:1693-1702 (1992)). In brief, bone marrow suspensions were incubated with red cell lysis buffer (PUREGENE™ RBC Lysis Solution, Gentra Systems, Minneapolis, Minn.) to remove red blood cells. After washing in media, lymphocytes and Ia-positive cells were killed with a cocktail of monoclonal antibodies (mAbs) and rabbit complement for 60 min at 37° C. The mAbs that were used were GK1.5 anti-CD4, TIB211 anti-CD8, TIB 120 anti-Ia, and TIB 146 anti B220 (these mAbs were kindly provided by Dr. Ralph Steinman). The cells were subsequently cultured in media containing 5% FCS and 10 ng/ml recombinant mouse GM-CSF (R&D Systems, Minneapolis, Minn.) for 7 days. For some experiments, the cells were further purified at day 7 using CD11c^+-microbeads (Miltenyi Biotech., Auburn, Calif.), according to the manufacturer's instructions.
Recombinant HMGB1-B box domain (HMGB1-Bx) was expressed in Escherichia coli and purified as described by Li, et al. (Mol. Med. 9:37-45; J. Immunol. Methods 289:211-223 (2004)). Purified HMGB1-Bx contained trace amounts of LPS (19 pg LPS/μg HMGB1-Bx) as measured by the chromogenic Limulus amebocyte lysate assay (BioWhittacker Inc, Walkersville, Md.). All experiments using HMGB1-Bx, as well as the HMGB1 peptides, were performed in the presence of polymyxin B (200 U/ml) to neutralize the amount of contaminating LPS in the HMGB1-Bx and peptide preparations. We have previously shown that the DC stimulatory capacity of HMGB1-Bx requires an intact tertiary structure and is not due to contaminating amounts of LPS, as trypsinization abolished HMGB1-Bx activity (Messmer, et al., J. Immunol. 173: 307-313 (2004); the entire teachings of which are incorporated herein by reference).
Secreted cytokine/chemokine levels were measured by ELISA (Pierce Boston Technology Center, SearchLight™ Proteome Arrays Multiplex Sample Testing Services, Woburn, Mass.) 48 h after addition of the various peptides. Polymyxin B (200 U/ml) was added to all cultures, except those containing LPS, before the stimuli were added. Immature monocyte-derived human dendritic cells (DCs) and immature bone-marrow derived murine dendritic cells (BM-DCs) were cultured either in the presence of HMGB1 peptides (200 μg/ml), whose sequences map to different regions of the HMGB1 protein (see Table 1), the entire HMGB1 B-box domain (HMGB1-Bx) (50 μg/ml), or LPS (100 ng/ml). Untreated cells (medium) were tested as a control. Each peptide was named according to the corresponding position of its first amino acid within the full-length HMGB1 sequence. All peptides were N-terminally biotinylated except “Hp-106 (non bio)”.

immature BM-DCs = test: Phenotypic maturation of murine BM-DCs: surface maturation markers by FACS; settings: CD11c+ gated, mean fluorescence intensity, peptide 200 μg/ml, HMGB1-Bx 50 μg/ml; for CD86 expression on the surface of BM-DCs: FIG. 3A; for MHC-II expression on the surface of BM-DCs: FIG. 3B; for CD40 expression on the surface of BM-DCs: FIG. 3C
Experimental: In order to determine whether HMGB1-Bx and/or particular HMGB1 peptides could induce phenotypic maturation of murine DCs, immature BM-DCs were exposed to either HMGB1-Bx, a particular HMGB1 peptide, or LPS (FIG. 3). Fluorescence activated cell sorting (FACS) analysis was performed on immature DCs that were cultured in the presence of either HMGB1-Bx (50 μg/ml), an HMGB1 peptide (200 μg/ml), or LPS (100 ng/ml). Untreated DCs (medium) were also tested as a control. DCs were gated on CD11c^+ cells and analyzed for expression of specific maturation markers (e.g., CD86, MHC-II, CD40) by surface membrane immunofluorescence. In particular, 1×10^4 DCs were reacted for at least 20 min at 4° C. in […] of PBS/5% FCS/0.1% sodium azide (staining buffer) with fluorescein isothiocyanate (FITC)-conjugated IgG monoclonal antibodies (mAbs) that are specific for CD86, CD40 or MHC-II (eBioscience). Cells were then washed 4 times with staining buffer, fixed in 10% formaldehyde in PBS (pH 7.2-7.4) and examined by flow cytometry using a FACScan (BD Biosciences). In all experiments, isotype controls were included using a FITC-conjugated irrelevant mAb of the same Ig class. Results are depicted as mean fluorescence intensity (MFI).

[2] = tested on: allogeneic T cells co-cultured with BM-DCs; test: Functional maturation of BM-DCs: allogeneic T cell proliferation in mixed lymphocyte reaction (3H-thymidine); settings: BM-DCs from C57/BL6 mice exposed 48 h; peptide 200 μg/ml, HMGB1-Bx 50 μg/ml; DC:T cell ratio 1:120, 5 days; FIG. 4A
Experimental: Immature BM-DCs that were generated from C57/BL6 mice (FIG. 4A) or Balb/c mice (FIG. 4B) were incubated for 48 h with either HMGB1-Bx (50 μg/ml), a particular HMGB1 peptide (200 μg/ml), LPS (100 ng/ml) or were left untreated (medium). T cells were isolated by negative selection using the mouse SpinSep antibody cocktail from StemCell Technologies (Vancouver, Calif.), according to the manufacturer's instructions. The cell purity of the isolated T cells was routinely ˜99% pure. In order to assess levels of T cell activation and proliferation, cells were plated at 10^5 cells per well in a round-bottomed 96-well tray at a DC:T cell ratio of 1:120 for 5 days in the medium described above. The microcultures were pulsed with (^3H)-thymidine ([…]) for the final 8 h of culture. Cell cultures were harvested onto glass fiber filters with an automated multiple sample harvester and the amount of isotope incorporation was determined by liquid scintillation β-emission. Responses are reported as mean cpm of thymidine incorporation by triplicate cultures (±SEM).

Sequence | IL-1β secretion [1] | IL-2 secretion [1] | IL-5 secretion [1] | IL-6 secretion [1] | IL-8 secretion [1] | IL-10 secretion [1] | IL-12 secretion [1] | IL-18 secretion [1] | TNFα secretion [1] | cytokine secretion by murine BM-DCs [1] | secretion of IL-1β [1] | secretion of IL-2 [1] | secretion of IL-8 [1] | secretion of IL-5 [1] | secretion of IL-18 [1] | secretion of TNF-α [1] | secretion of IL-12 (p70) [1] | CD86 expression on the surface of BM-DCs (immature BM-DCs) | MHC-II expression on the surface of BM-DCs (immature BM-DCs) | CD40 expression on the surface of BM-DCs (immature BM-DCs) | other results
CSEYRPKIKGEHPGLSIG [Hp-106] (Biotin-CSEYRPKIKGEHPGLSIG; listed as Homo sapiens) | + | + | + | − | + | − | + | + | + | induced cytokine secretion by murine BM-DCs; also recorded: high levels of cytokine secretion | enhanced secretion | enhanced secretion | enhanced secretion | enhanced secretion | enhanced secretion | enhanced secretion | enhanced secretion | did not significantly enhance | did not significantly enhance | did not significantly enhance | proliferation of resting allogeneic T cells (3H thymidine incorporation) [2]: activated proliferation
YAFFVQTCREEHIKKHPD [Hp-16] | + | + | + | − | − | − | + | + | − | enhanced cytokine secretion; also recorded: stimulated cytokine secretion | enhanced secretion | enhanced secretion | only Hp-106 enhanced secretion | enhanced secretion | enhanced secretion | only Hp-106 enhanced secretion | enhanced secretion | strong upregulation | strong upregulation | strong upregulation | proliferation of resting allogeneic T cells (3H thymidine incorporation) [2]: activated proliferation
